Assay results from PubChem BioAssay (NCI).
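Values below derive from 48-hour exposures of cells grown in 96-well plates, with endpoints linearly interpolated between the two concentrations bracketing the appropriate inhibition level. At the GI50, growth is halved. Definition used: TGI = concentration required for complete inhibition of growth.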

How the values were obtained:
Assay in all cases: inhibition of tumour cell growth, NCI panel, 48 h
HT29 colon = test system: HT29 colon
MALME-3M melanoma = test system: MALME-3M melanoma
ACHN renal = test system: ACHN renal
RXF 393 renal = test system: RXF 393 renal
SK-OV-3 ovarian = test system: SK-OV-3 ovarian
UO-31 renal = test system: UO-31 renal
DU-145 prostate = test system: DU-145 prostate
NCI-H226 lung = test system: NCI-H226 lung
LOX IMVI melanoma = test system: LOX IMVI melanoma
NCI/ADR-RES ovarian = test system: NCI/ADR-RES ovarian
OVCAR-4 ovarian = test system: OVCAR-4 ovarian
U251 CNS = test system: U251 CNS
IGROV1 ovarian = test system: IGROV1 ovarian
786-0 renal = test system: 786-0 renal
MOLT-4 leukemia = test system: MOLT-4 leukemia
MDA-MB-231 breast = test system: MDA-MB-231 breast
COLO 205 colon = test system: COLO 205 colon
OVCAR-5 ovarian = test system: OVCAR-5 ovarian
SNB-19 CNS = test system: SNB-19 CNS
NCI-H460 lung = test system: NCI-H460 lung
HOP-62 NSCLC = test system: HOP-62 NSCLC
RPMI-8226 leukemia = test system: RPMI-8226 leukemia
SN12C renal = test system: SN12C renal
KM12 colon = test system: KM12 colon
SF-268 CNS = test system: SF-268 CNS
OVCAR-3 ovarian = test system: OVCAR-3 ovarian
K-562 leukemia = test system: K-562 leukemia
SK-MEL-5 melanoma = test system: SK-MEL-5 melanoma
CCRF-CEM leukemia = test system: CCRF-CEM leukemia
SF-295 CNS = test system: SF-295 CNS
BT-549 breast = test system: BT-549 breast
T-47D breast = test system: T-47D breast
HOP-92 NSCLC = test system: HOP-92 NSCLC
HCT-116 colon = test system: HCT-116 colon
MCF7 breast = test system: MCF7 breast
A498 renal = test system: A498 renal
MDA-MB-435 = test system: MDA-MB-435
TK-10 renal = test system: TK-10 renal
NCI-H23 lung = test system: NCI-H23 lung
SNB-75 CNS = test system: SNB-75 CNS
A549 NSCLC = test system: A549 NSCLC
HL-60(TB) leukemia = test system: HL-60(TB) leukemia
SF-539 CNS = test system: SF-539 CNS
PC-3 prostate = test system: PC-3 prostate
HCC-2998 colon = test system: HCC-2998 colon
CAKI-1 renal = test system: CAKI-1 renal
SK-MEL-28 melanoma = test system: SK-MEL-28 melanoma
OVCAR-8 ovarian = test system: OVCAR-8 ovarian
SR leukemia = test system: SR leukemia
HS 578T breast = test system: HS 578T breast
SW-620 colon = test system: SW-620 colon
HCT-15 colon = test system: HCT-15 colon
UACC-257 melanoma = test system: UACC-257 melanoma
NCI-H522 lung = test system: NCI-H522 lung
M14 melanoma = test system: M14 melanoma
UACC-62 melanoma = test system: UACC-62 melanoma
EKVX NSCLC = test system: EKVX NSCLC

Work on COC1=CC(c2ccc[nH]2)=N/C1=C\c1[nH]c(C)c(C(=O)CCCCC(=O)NCc2ccccc2)c1C yielded a GI50 (HT29 colon) of 723 nM, a TGI (HT29 colon) of 5.67 µM and a GI50 (MALME-3M melanoma) of 2560 nM. The TGI (MALME-3M melanoma) was 5.57 µM, the GI50 (ACHN renal) was 2490 nM and the TGI (ACHN renal) was 8.11 µM. The GI50 (RXF 393 renal) was 1900 nM, the TGI (RXF 393 renal) was 4.58 µM and the GI50 (SK-OV-3 ovarian) was 14.8 µM. The TGI (SK-OV-3 ovarian) was 31.1 µM, the GI50 (UO-31 renal) was 2260 nM and the TGI (UO-31 renal) was 8.81 µM. The GI50 (DU-145 prostate) was 1640 nM, the TGI (DU-145 prostate) was 3.53 µM and the GI50 (NCI-H226 lung) was 2730 nM. The TGI (NCI-H226 lung) was 10.9 µM, the GI50 (LOX IMVI melanoma) was 1430 nM and the TGI (LOX IMVI melanoma) was 2770 nM. It also gave a GI50 (NCI/ADR-RES ovarian) of 2170 nM, a TGI (NCI/ADR-RES ovarian) of 5.36 µM and a GI50 (OVCAR-4 ovarian) of 6.31 µM. The TGI (OVCAR-4 ovarian) was 23.4 µM, the GI50 (U251 CNS) was 1430 nM and the TGI (U251 CNS) was 2950 nM. The GI50 (IGROV1 ovarian) was 3.36 µM, the TGI (IGROV1 ovarian) was 14.7 µM and the GI50 (786-0 renal) was 2400 nM. For the same molecule, the TGI (786-0 renal) was 6.69 µM, the GI50 (MOLT-4 leukemia) was 1090 nM and the TGI (MOLT-4 leukemia) was 3.09 µM. It also gave a GI50 (MDA-MB-231 breast) of 1610 nM, a TGI (MDA-MB-231 breast) of 7.56 µM and a GI50 (COLO 205 colon) of 2370 nM. It also gave a GI50 (OVCAR-5 ovarian) of 7.18 µM, a TGI (OVCAR-5 ovarian) of 21.3 µM and a GI50 (SNB-19 CNS) of 8.76 µM. The TGI (SNB-19 CNS) was 24 µM, the GI50 (NCI-H460 lung) was 1990 nM and the TGI (NCI-H460 lung) was 5.34 µM. It also gave a GI50 (HOP-62 NSCLC) of 2870 nM, a TGI (HOP-62 NSCLC) of 10.2 µM and a GI50 (RPMI-8226 leukemia) of 2560 nM. It also gave a TGI (RPMI-8226 leukemia) of 6.52 µM, a GI50 (SN12C renal) of 3.82 µM and a TGI (SN12C renal) of 18.4 µM. For the same molecule, the GI50 (KM12 colon) was 1380 nM, the TGI (KM12 colon) was 3.02 µM and the GI50 (SF-268 CNS) was 1820 nM. For the same molecule, the TGI (SF-268 CNS) was 6.04 µM, the GI50 (OVCAR-3 ovarian) was 1430 nM and the TGI (OVCAR-3 ovarian) was 2890 nM. The GI50 (K-562 leukemia) was 1730 nM, the TGI (K-562 leukemia) was 4.72 µM and the GI50 (SK-MEL-5 melanoma) was 10.8 µM. For the same molecule, the TGI (SK-MEL-5 melanoma) was 23.4 µM, the GI50 (CCRF-CEM leukemia) was 673 nM and the TGI (CCRF-CEM leukemia) was 6.98 µM. It also gave a GI50 (SF-295 CNS) of 1870 nM, a TGI (SF-295 CNS) of 7.23 µM and a GI50 (BT-549 breast) of 2100 nM. It also gave a TGI (BT-549 breast) of 7.12 µM, a GI50 (T-47D breast) of 2340 nM and a TGI (T-47D breast) of 7.23 µM. The GI50 (HOP-92 NSCLC) was 1650 nM, the TGI (HOP-92 NSCLC) was 4.63 µM and the GI50 (HCT-116 colon) was 1510 nM. It also gave a TGI (HCT-116 colon) of 2830 nM, a GI50 (MCF7 breast) of 1600 nM and a TGI (MCF7 breast) of 3.44 µM. The GI50 (A498 renal) was 15.5 µM, the TGI (A498 renal) was 35.3 µM and the GI50 (MDA-MB-435) was 1610 nM. For the same molecule, the TGI (MDA-MB-435) was 3.72 µM, the GI50 (TK-10 renal) was 2150 nM and the TGI (TK-10 renal) was 4.63 µM. For the same molecule, the GI50 (NCI-H23 lung) was 2470 nM, the TGI (NCI-H23 lung) was 11 µM and the GI50 (SNB-75 CNS) was 3.72 µM. It also gave a TGI (SNB-75 CNS) of 15.1 µM, a GI50 (A549 NSCLC) of 3.56 µM and a TGI (A549 NSCLC) of 16.9 µM. It also gave a GI50 (HL-60(TB) leukemia) of 2200 nM, a TGI (HL-60(TB) leukemia) of 7.33 µM and a GI50 (SF-539 CNS) of 4.66 µM. For the same molecule, the TGI (SF-539 CNS) was 15.8 µM, the GI50 (PC-3 prostate) was 1570 nM and the TGI (PC-3 prostate) was 3.99 µM. The GI50 (HCC-2998 colon) was 3.16 µM, the TGI (HCC-2998 colon) was 12.2 µM and the GI50 (CAKI-1 renal) was 2540 nM. It also gave a TGI (CAKI-1 renal) of 13.4 µM, a GI50 (SK-MEL-28 melanoma) of 2070 nM and a TGI (SK-MEL-28 melanoma) of 4.64 µM. It also gave a GI50 (OVCAR-8 ovarian) of 5.85 µM, a TGI (OVCAR-8 ovarian) of 23.3 µM and a GI50 (SR leukemia) of 1140 nM. It also gave a TGI (SR leukemia) of 3.3 µM, a GI50 (HS 578T breast) of 1980 nM and a TGI (HS 578T breast) of 4.43 µM. For the same molecule, the GI50 (SW-620 colon) was 1060 nM, the TGI (SW-620 colon) was 2580 nM and the GI50 (HCT-15 colon) was 845 nM. It also gave a TGI (HCT-15 colon) of 2250 nM, a GI50 (UACC-257 melanoma) of 18.6 µM and a TGI (UACC-257 melanoma) of 38.5 µM. It also gave a GI50 (NCI-H522 lung) of 1950 nM, a TGI (NCI-H522 lung) of 6.09 µM and a GI50 (M14 melanoma) of 2680 nM. It also gave a TGI (M14 melanoma) of 7.36 µM, a GI50 (UACC-62 melanoma) of 8.85 µM and a TGI (UACC-62 melanoma) of 22.8 µM. The GI50 (EKVX NSCLC) was 4.2 µM and the TGI (EKVX NSCLC) was 18.1 µM.
